In assay [1] the test system is Mus musculus. Kind of assay: Antiinfectious effect against Escherichia coli 22 in ICR mice(10) at the dose of 1 mg/kg (i.p.) expressed as number of survivals. In kind it is functional. The conditions noted are these: route intraperitoneal.
The test system of assay [2] is Mus musculus. Kind of assay: Phagocytic activity was assessed in a carbon clearance assay in male DDY mice at the dose of 1 mg/kg. It is filed as functional, organism-based. Set-up: dose 1 mg/kg.
Assay [3] concerns Mus musculus. Kind of assay: Antiinfectious effect against Escherichia coli 22 in ICR mice(10) at the dose of 0.1 mg/kg (i.p.) expressed as number of survivals. In kind it is functional. The following applies: route intraperitoneal.
The nature of assay [4]: Phagocytic activity was assessed in a carbon clearance assay and stimulation index was reported in male DDY mice at the dose of 1 mg/kg; Kt/Kc. It is filed as functional.
A short description of assay [5]: Phagocytic activity was assessed in a carbon clearance assay and stimulation index was reported in male DDY mice at the dose of 0.1 mg/kg; Kt/Kc. It is filed as functional.
Assay [6] deals with Mus musculus. Put plainly: Phagocytic activity was assessed in a carbon clearance assay in male DDY mice at the dose of 0.1 mg/kg. In kind it is functional, organism-based. Set-up: dose 0.1 mg/kg.
Assay [7] is filed under the species Cavia porcellus. Put plainly: Ability to induce delayed-type hypersensitivity to egg albumin in Hartley guinea pigs at the dose of 10 ug/site. It is filed as functional. Also noted: unit not given beside the values.
The species entered for assay [8] is Cavia porcellus. Put plainly: Ability to induce delayed-type hypersensitivity to egg albumin in Hartley guinea pigs at the dose of 1 ug/site. In kind it is functional.
Assay [9] is described as follows: Phagocytic activity was assessed in a carbon clearance assay and stimulation index was reported in male DDY mice at the dose of 10 mg/kg; Kt/Kc. It is filed as functional.
In assay [10] the test system is Mus musculus. Put plainly: Antiinfectious effect against Escherichia coli 22 in ICR mice(10) at the dose of 1 mg/kg (i.p.) expressed as survivals. In kind it is functional. The conditions noted are these: route intraperitoneal.
In assay [11] the test system is Mus musculus. Put plainly: Phagocytic activity was assessed in a carbon clearance assay in male DDY mice at the dose of 10 mg/kg. Also noted: dose 10 mg/kg. It is filed as functional, organism-based.
Assay [12] is filed under the species Mus musculus. Put plainly: Tumor suppressive activity against meth-A fibrosarcoma in BALB/c mice(9) at the dose of 100 ug/site. It is filed as functional.
Assay [13] is filed under the species Mus musculus. Kind of assay: Tumor suppressive activity against meth-A fibrosarcoma in BALB/c mice (10) at the dose of 100 ug/site. In kind it is functional.

Bounds are passed on as bounds.

For the compound `CCCCCCCC(=O)NC(CCC(=O)NC(CCCC(N)C(=O)O)C(=O)O)C(=O)O` (centres undefined), the Survival is 6 in the assay with Mus musculus [1] and 7 in the assay with Mus musculus [3]. For the same compound, the K with Mus musculus [2] was 0.048; in the assay on Mus musculus [6], 0.032. The Ratio in [4] is 2.4; in assay [5], 1.6. In addition, the Skin response in the assay filed under Cavia porcellus [7] came out at 3.7; in the assay listed under Cavia porcellus [8], 8.3.
`NC(CCCC(NC(=O)CCC(N)C(=O)O)C(=O)O)C(=O)O` (centres undefined): the values for the K in the assay with Mus musculus [2] and in the assay with Mus musculus [11] were 0.021 and 0.058, respectively. The Survival in the assay with Mus musculus [3] and in the assay on Mus musculus [10] was 4 throughout. For the same compound, the values for the Ratio in assay [4] and in assay [9] were 1.1 and 2.9, respectively. The Skin response in the assay listed under Cavia porcellus [7] was 6.9; in the assay filed under Cavia porcellus [8], 3.3.
For the compound `CCCCCCCCCCCCCCCCCC(=O)NC(CCC(=O)NC(CCCC(N)C(=O)O)C(=O)O)C(=O)O` (centres undefined), the values for the Survival with Mus musculus [1] and with Mus musculus [3] were 8 and 7, respectively. Also, the K in the assay with Mus musculus [2] is below 0.048; with Mus musculus [6], 0.032. Besides, the Ratio is 2.4 in [4] and 1.6 in [5]. This compound also gave a Suppression in the assay filed under Mus musculus [12] of 9. Also, the Skin response in the assay filed under Cavia porcellus [7] is below 3.1; in the assay filed under Cavia porcellus [8], 1.7.
Take `CC(O)C(=O)NC(C)C(=O)NC(CCC(=O)NC(CCCC(N)C(=O)O)C(=O)NCC(=O)O)C(=O)O` (centres undefined): the Survival stood at 7 with Mus musculus [1] and 6 with Mus musculus [3]. For the same compound, the K in the assay on Mus musculus [2] turned out to be 0.038; with Mus musculus [6], 0.029. For the same compound, the Ratio in assay [4] came out at 1.9; in assay [5] it was 1.5. The Suppression in the assay listed under Mus musculus [13] is 0. Further, the values for the Skin response in the assay filed under Cavia porcellus [7] and in the assay filed under Cavia porcellus [8] were 10 and 8.2, respectively.

Values taken from ChEMBL document CHEMBL1122029, “N2-(gamma-D-Glutamyl)-meso-2(L),2'(D)-diaminopimelic acid as the minimal prerequisite structure of FK-156: its acyl derivatives with potent immunostimulating activity” (1982).
